In patent US20140005163A1 (NOVARTIS AG, priority 2010, published 2014):
≈ marks a conversion by molar mass, not a printed value.

Experiments:
Solubility at pH 6.8 = assay type: physicochemical; conditions: pH 6.8, aqueous buffer, thermodynamic from solid; read-out: solubility
Method in brief: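 Following the procedure of Zhou et al. (2007), compound solubility was determined at pH 6.8.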

[1] = tested on: PKB Ser473 phosphorylation in Rat1-myr-HA-p110 alpha cells; assay: Reverse protein array assay, PKB Ser473 phosphorylation in Rat1-myr-p110 alpha cells; assay type: cell-based; conditions: 0.5 h, pAkt Ser473, 30 minutes compound incubation, read-out: p-PKB IC50
Method in brief: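 After at least 20 h of culture, the p110 isoform-transfected Rat1 lines receive compound in an 8-step dilution series, keeping DMSO at 0.2%, for 30 minutes. Cells are then lysed and lysates arrayed on chips for fluorescence detection of Ser473-phosphorylated PKB.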

PI3K alpha = target: T1, PI3K alpha (Homo sapiens, UniProt P42336); assay: PI3K alpha kinase assay (Kinase-Glo luminescence); assay type: biochemical
T1 construct: p85(iSH2) fusion partner (see partner chain) (N); His tag (C); made in house; host or cells: baculovirus; Tn5 (Trichoplusia ni) or TiniPro insect cells
T1 sequence (P42336 with tags, fused parts or gaps limits assumed): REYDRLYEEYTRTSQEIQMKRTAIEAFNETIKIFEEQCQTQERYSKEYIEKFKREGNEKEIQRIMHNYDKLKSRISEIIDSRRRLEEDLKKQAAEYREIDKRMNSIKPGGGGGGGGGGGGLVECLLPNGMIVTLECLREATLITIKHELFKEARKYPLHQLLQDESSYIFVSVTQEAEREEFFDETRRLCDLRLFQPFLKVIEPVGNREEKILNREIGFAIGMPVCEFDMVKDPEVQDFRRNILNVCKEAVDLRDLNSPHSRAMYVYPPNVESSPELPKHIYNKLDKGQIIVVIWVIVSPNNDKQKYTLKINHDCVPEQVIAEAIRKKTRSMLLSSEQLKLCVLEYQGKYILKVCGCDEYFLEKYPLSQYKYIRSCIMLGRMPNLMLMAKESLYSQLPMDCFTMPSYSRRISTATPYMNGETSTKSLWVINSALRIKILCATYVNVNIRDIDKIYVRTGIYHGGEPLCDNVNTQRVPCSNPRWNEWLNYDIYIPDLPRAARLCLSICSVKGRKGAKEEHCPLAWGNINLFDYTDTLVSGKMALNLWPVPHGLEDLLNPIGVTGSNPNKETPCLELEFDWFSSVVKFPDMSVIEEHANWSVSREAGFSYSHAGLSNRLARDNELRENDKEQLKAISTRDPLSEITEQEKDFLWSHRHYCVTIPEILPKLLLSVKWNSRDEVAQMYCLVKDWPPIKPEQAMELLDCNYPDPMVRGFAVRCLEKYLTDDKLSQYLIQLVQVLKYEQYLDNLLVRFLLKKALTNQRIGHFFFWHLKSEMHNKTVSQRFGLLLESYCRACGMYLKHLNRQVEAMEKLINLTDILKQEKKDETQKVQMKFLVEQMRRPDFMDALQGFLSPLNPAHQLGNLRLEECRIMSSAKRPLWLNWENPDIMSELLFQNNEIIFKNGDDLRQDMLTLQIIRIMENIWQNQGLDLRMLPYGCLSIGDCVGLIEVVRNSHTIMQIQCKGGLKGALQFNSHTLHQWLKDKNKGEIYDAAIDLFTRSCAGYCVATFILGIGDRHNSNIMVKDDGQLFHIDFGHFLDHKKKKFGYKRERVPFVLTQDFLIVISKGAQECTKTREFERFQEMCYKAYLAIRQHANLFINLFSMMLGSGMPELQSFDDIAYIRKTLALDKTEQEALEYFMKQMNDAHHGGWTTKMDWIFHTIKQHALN
Method in brief: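 Enzyme 10 nM PI3Kα EMV B1075; ATP 1 μM; PI 10 μg/mL; Tris-HCl pH 7.5 10 mM, MgCl2 3 mM, NaCl 50 mM, CHAPS 0.05%, DTT 1 mM; 60 min RT; Kinase-Glo luminescence; 4-parameter IC50 fit, 8 concentrations, single points.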

| solubility (Solubility at pH 6.8) [µg/mL] | IC50 [1] [nM] | IC50 (PI3K alpha) [nM] | Structure (SMILES) |
| --- | --- | --- | --- |
| 8 (≈ 17.5 µM) | 11 | 26 | CCNc1ncc(-c2ccc3ncc4c(c3c2)n(-c2cn(C)nc2C)c(=O)n4C)cc1COC [Example 206.1, 1-(1,3-Dimethyl-1H-pyrazol-4-yl)-8-(6-ethylamino-5-methoxymethyl-pyridin-3-yl)-3-methyl-1,3-dihydro-imidazo[4,5-c]quinolin-2-one] |
| > 472 | 126 | 186 | CCNc1ncc(-c2ccc3ncc4c(c3c2)n(-c2c(C)nn(C)c2C)c(=O)n4C)cc1COC [Example 206.2, 8-(6-Ethylamino-5-methoxymethyl-pyridin-3-yl)-3-methyl-1-(1,3,5-trimethyl-1H-pyrazol-4-yl)-1,3-dihydro-imidazo[4,5-c]quinolin-2-one] |
| 133 (≈ 322 µM) | 20 | 15 | CCc1ncc(-c2ccc3ncc4c(c3c2)n(-c2cn(C)nc2C)c(=O)n4C)cc1N [Example 208, 8-(5-Amino-6-ethyl-pyridin-3-yl)-1-(1,3-dimethyl-1H-pyrazol-4-yl)-3-methyl-1,3-dihydro-imidazo[4,5-c]quinolin-2-one] |
| 217 (≈ 462 µM) | 125 | 462 | CO[C@@H]1CCN(c2ccc(-c3ccc4ncc5c(c4c3)n(-c3cn(C)nc3C)c(=O)n5C)cn2)C1 [Example 213.1, 1-(1,3-Dimethyl-1H-pyrazol-4-yl)-8-[6-((R)-3-methoxy-pyrrolidin-1-yl)-pyridin-3-yl]-3-methyl-1,3-dihydro-imidazo[4,5-c]quinolin-2-one] |
| 16 (≈ 34.9 µM) | 6 | 5 | Cn1cc(-n2c(=O)n(C)c3cnc4ccc(-c5cncc(C(C)(C)C#N)c5)cc4c32)c(Cl)n1 [Example 220.3, 2-{5-[1-(3-Chloro-1-methyl-1H-pyrazol-4-yl)-3-methyl-2-oxo-2,3-dihydro-1H-imidazo[4,5-c]quinolin-8-yl]-pyridin-3-yl}-2-methyl-propionitrile] |
| 21 (≈ 46.7 µM) | 14 | 14 | Cc1nn(C)cc1-n1c(=O)n(C)c2cnc3ccc(-c4cncc(C5(C#N)CCC5)c4)cc3c21 [Example 221.1, 1-{5-[1-(1,3-Dimethyl-1H-pyrazol-4-yl)-3-methyl-2-oxo-2,3-dihydro-1H-imidazo[4,5-c]quinolin-8-yl]-pyridin-3-yl}-cyclobutanecarbonitrile] |
| 14 (≈ 29.8 µM) | 18 | 8 | CCN1C(=O)OCc2ncc(-c3ccc4ncc5c(c4c3)n(-c3cn(C)nc3C)c(=O)n5C)cc21 [Example 237, 1-(1,3-Dimethyl-1H-pyrazol-4-yl)-8-(1-ethyl-2-oxo-1,4-dihydro-2H-pyrido[3,2-d][1,3]oxazin-7-yl)-3-methyl-1,3-dihydro-imidazo[4,5-c]quinolin-2-one] |
| 129 (≈ 323 µM) | 730 | 22 | CCn1c(=O)n(-c2cn(C)nc2C)c2c3cc(-c4cncc(N)c4)ccc3ncc21 [Example 245, 8-(5-Amino-pyridin-3-yl)-1-(1,3-dimethyl-1H-pyrazol-4-yl)-3-ethyl-1,3-dihydro-imidazo[4,5-c]quinolin-2-one] |
| 56 (≈ 107 µM) | 45 | 38 | Cc1nn(CC(=O)N2CCC2)cc1-n1c(=O)n(C)c2cnc3ccc(-c4cnc(N5CCCC5)nc4)cc3c21 [Example 247.2, 1-[1-(2-Azetidin-1-yl-2-oxo-ethyl)-3-methyl-1H-pyrazol-4-yl]-3-methyl-8-(2-pyrrolidin-1-yl-pyrimidin-5-yl)-1,3-dihydro-imidazo[4,5-c]quinolin-2-one] |
